{"source": "patent US10005767B2", "about": "“Compositions and methods for inhibition of the JAK pathway” (Rigel Pharmaceuticals, Inc., priority 2009, dated 2018)", "note": "pIC50: −log10 of the molar value.", "data": [{"tested_on": "human primary T-cells, IL-2 stimulated proliferation (JAK-1 and JAK-3 dependent; reported as JAK3 activity)", "assay": "Human primary T-cell proliferation stimulated by IL-2 (Example 3)", "type": "cell-based", "conditions": "Homo sapiens, T-cell, tested under conditions described in Example 3 (IL-2 stimulated human primary T-cell proliferation); read-out: ability to inhibit JAK3 activity, IC50 range (Table V)", "how_it_was_run": "(§1)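 Peripheral-blood human T-cells pre-activated via TCR/CD28, IL-2-starved overnight, then cultured 72 h at 37 °C with compound in Yssel's medium containing IL-2 (80 U/mL in cell suspension). Proliferation read as viable-cell ATP by CellTiter-Glo luminescence; reduction versus control taken as JAK pathway inhibition.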", "values": [{"smiles": "Cc1cccc(Nc2ncc(C)c(Nc3ccc4oc(=O)[nH]c4c3)n2)c1", "note": "[Compound I-403, 5-(5-Methyl-2-m-tolylamino-pyrimidin-4-ylamino)-3H-benzooxazol-2-one]", "pIC50": "> 6.30"}, {"smiles": "Cc1cnc(Nc2ccc(OCCCN(C)C)c(C(F)(F)F)c2)nc1Nc1ccc2oc(=O)[nH]c2c1", "note": "[Compound I-404, 5-{2-[4-(3-Dimethylamino-propoxy)-3-trifluoromethyl-phenylamino]-5-methyl-pyrimidin-4-ylamino}-3H-benzooxazol-2-one]", "pIC50": "> 6.30"}]}, {"tested_on": "human primary T-cells, IL-2 stimulated proliferation (JAK-1 and JAK-3 dependent; reported as JAK3 activity)", "assay": "Human primary T-cell proliferation stimulated by IL-2 (Example 3)", "type": "cell-based", "conditions": "tested under conditions described in Example 3 (IL-2 stimulated human primary T-cell proliferation); read-out: ability to inhibit JAK3 activity, IC50 range (Table V)", "how_it_was_run": "as §1", "values": [{"smiles": "Cc1cc(Nc2ncc(C)c(Nc3ccc4oc(=O)[nH]c4c3)n2)cc(OC(F)(F)F)c1", "note": "[Compound I-379, 5-methyl-N2-(3-methyl-5-trifluoromethoxy)phenyl-N4-(2-oxo-2,3-dihydro-1,3-benzoxazol-5-yl)-2,4-pyrimidinediamine]", "pIC50": "> 6.30"}, {"smiles": "COc1cc(Nc2ncc(C)c(Nc3ccc4oc(=O)[nH]c4c3)n2)ccc1C#N", "note": "[Compound I-380, N2-(4-cyano-3-methoxy)phenyl-5-methyl-N4-(2-oxo-2,3-dihydro-1,3-benzoxazol-5-yl)-2,4-pyrimidinediamine]", "pIC50": "> 6.30"}, {"smiles": "COc1c(F)cc(Nc2ncc(C)c(Nc3ccc4oc(=O)[nH]c4c3)n2)cc1F", "note": "[Compound I-381, N2-(3,5-difluoro-4-methoxy)phenyl-5-methyl-N4-(2-oxo-2,3-dihydro-1,3-benzoxazol-5-yl)-2,4-pyrimidinediamine]", "pIC50": "> 6.30"}, {"smiles": "Cc1cnc(Nc2ccc(CN3CCOCC3)cc2)nc1Nc1ccc2oc(=O)[nH]c2c1", "note": "[Compound I-382, 5-methyl-N2-(4-morpholinomethyl)phenyl-N4-(2-oxo-2,3-dihydro-1,3-benzoxazol-5-yl)-2,4-pyrimidinediamine]", "pIC50": "> 6.30"}, {"smiles": "CCc1cc(Nc2ncc(C)c(Nc3ccc4oc(=O)[nH]c4c3)n2)cc(C#N)c1Cl", "note": "[Compound I-383, N2-(4-chloro-3-cyano-5-ethyl)phenyl-5-methyl-N4-(2-oxo-2,3-dihydro-1,3-benzoxazol-5-yl)-2,4-pyrimidinediamine]", "pIC50": "5.30 to 6.30"}, {"smiles": "COCCOc1cc(Nc2ncc(C)c(Nc3ccc4oc(=O)[nH]c4c3)n2)cc(C(F)(F)F)c1", "note": "[Compound I-384, N2-[3-(2-methoxy)ethoxy-5-trifluoromethyl]phenyl-5-methyl-N4-(2-oxo-2,3-dihydro-1,3-benzoxazol-5-yl)-2,4-pyrimidinediamine]", "pIC50": "> 6.30"}, {"smiles": "Cc1cnc(Nc2cc(C)c(OC(F)F)c(C)c2)nc1Nc1ccc2oc(=O)[nH]c2c1", "note": "[Compound I-385, N2-(4-difluoromethoxy-3,5-dimethyl)phenyl-5-methyl-N4-(2-oxo-2,3-dihydro-1,3-benzoxazol-5-yl)-2,4-pyrimidinediamine]", "pIC50": "> 6.30"}, {"smiles": "Cc1cnc(Nc2ccc(F)c(OC(C)(C)C(N)=O)c2)nc1Nc1ccc2oc(=O)[nH]c2c1", "note": "[Compound I-386, N2-[3-(1-aminocarbonyl-1-methyl)ethoxy-4-fluoro]phenyl-5-methyl-N4-(2-oxo-2,3-dihydro-1,3-benzoxazol-5-yl)-2,4-pyrimidinediamine]", "pIC50": "> 6.30"}, {"smiles": "Cc1cc(Nc2ncc(C)c(Nc3ccc4oc(=O)[nH]c4c3)n2)ccc1OC(F)F", "note": "[Compound I-387, N2-(4-difluoromethoxy-3-methyl)phenyl-5-methyl-N4-(2-oxo-2,3-dihydro-1,3-benzoxazol-5-yl)-2,4-pyrimidinediamine]", "pIC50": "> 6.30"}, {"smiles": "Cc1cnc(Nc2cc(F)c(OC(F)F)c(F)c2)nc1Nc1ccc2oc(=O)[nH]c2c1", "note": "[Compound I-388, N2-(3,5-difluoro-4-difluoromethoxy)phenyl-5-methyl-N4-(2-oxo-2,3-dihydro-1,3-benzoxazol-5-yl)-2,4-pyrimidinediamine]", "pIC50": "> 6.30"}, {"smiles": "Cc1cnc(Nc2cc(C)c(OC(C)(C)C(N)=O)c(C)c2)nc1Nc1ccc2oc(=O)[nH]c2c1", "note": "[Compound I-389, N2-[4-(1-aminocarbonyl-1-methyl)ethoxy-3,5-dimethyl]phenyl-5-methyl-N4-(2-oxo-2,3-dihydro-1,3-benzoxazol-5-yl)-2,4-pyrimidinediamine]", "pIC50": "> 6.30"}, {"smiles": "Cc1ccc(Nc2ncc(C)c(Nc3ccc4oc(=O)[nH]c4c3)n2)cc1OC(F)F", "note": "[Compound I-390, N2-(3-difluoromethoxy-4-methyl)phenyl-5-methyl-N4-(2-oxo-2,3-dihydro-1,3-benzoxazol-5-yl)-2,4-pyrimidinediamine]", "pIC50": "> 6.30"}, {"smiles": "Cc1cc(Nc2ncc(C)c(Nc3ccc4oc(=O)[nH]c4c3)n2)ccc1OC(C)(C)C(N)=O", "note": "[Compound I-391, N2-[4-(1-aminocarbonyl-1-methyl)ethoxy-3-methyl]phenyl-5-methyl-N4-(2-oxo-2,3-dihydro-1,3-benzoxazol-5-yl)-2,4-pyrimidinediamine]", "pIC50": "> 6.30"}, {"smiles": "Cc1ccc(Nc2ncc(C)c(Nc3ccc4oc(=O)[nH]c4c3)n2)cc1OC(C)(C)C(N)=O", "note": "[Compound I-392, N2-[3-(1-aminocarbonyl-1-methyl)ethoxy-4-methyl]phenyl-5-methyl-N4-(2-oxo-2,3-dihydro-1,3-benzoxazol-5-yl)-2,4-pyrimidinediamine]", "pIC50": "> 6.30"}, {"smiles": "Cc1cnc(Nc2cc(C)c(Cl)c(C)c2)nc1Nc1ccc2oc(=O)[nH]c2c1", "note": "[Compound I-394, N2-(4-chloro-3,5-dimethyl)phenyl-5-methyl-N4-(2-oxo-2,3-dihydro-1,3-benzoxazol-5-yl)-2,4-pyrimidinediamine]", "pIC50": "> 6.30"}, {"smiles": "Cc1cnc(Nc2cc(F)c(OC(C)(C)C(N)=O)c(F)c2)nc1Nc1ccc2oc(=O)[nH]c2c1", "note": "[Compound I-395, N2-[4-(1-aminocarbonyl-1-methyl)ethoxy-3,5-difluoro]phenyl-5-methyl-N4-(2-oxo-2,3-dihydro-1,3-benzoxazol-5-yl)-2,4-pyrimidinediamine]", "pIC50": "> 6.30"}, {"smiles": "COC(c1cccc(Nc2ncc(C)c(Nc3ccc4oc(=O)[nH]c4c3)n2)c1)C(F)(F)F", "note": "(stereo not shown) [Compound I-396, N2-[3-(1-methoxy-2,2,2-trifluoroethyl)]phenyl-5-methyl-N4-(2-oxo-2,3-dihydro-1,3-benzoxazol-5-yl)-2,4-pyrimidinediamine]", "pIC50": "> 6.30"}, {"smiles": "Cc1ccc(Nc2ncc(C)c(Nc3ccc4oc(=O)[nH]c4c3)n2)cc1OC(C)(C)C#N", "note": "[Compound I-397, N2-[3-(1-cyano-1-methyl)ethoxy-4-methyl]phenyl-5-methyl-N4-(2-oxo-2,3-dihydro-1,3-benzoxazol-5-yl)-2,4-pyrimidinediamine]", "pIC50": "> 6.30"}, {"smiles": "Cc1cnc(Nc2ccc(F)c(F)c2)nc1Nc1ccc2oc(=O)[nH]c2c1", "note": "[Compound I-398, N2-(3,4-difluoro)phenyl-5-methyl-N4-(2-oxo-2,3-dihydro-1,3-benzoxazol-5-yl)-2,4-pyrimidinediamine]", "pIC50": "> 6.30"}, {"smiles": "Cc1cnc(Nc2ccc(F)c(Cl)c2)nc1Nc1ccc2oc(=O)[nH]c2c1", "note": "[Compound I-399, N2-(3-chloro-4-fluoro)phenyl-5-methyl-N4-(2-oxo-2,3-dihydro-1,3-benzoxazol-5-yl)-2,4-pyrimidinediamine]", "pIC50": "> 6.30"}, {"smiles": "Cc1cnc(Nc2ccc(Cl)c(F)c2)nc1Nc1ccc2oc(=O)[nH]c2c1", "note": "[Compound I-400, N2-(4-chloro-3-fluoro)phenyl-5-methyl-N4-(2-oxo-2,3-dihydro-1,3-benzoxazol-5-yl)-2,4-pyrimidinediamine]", "pIC50": "> 6.30"}, {"smiles": "Cc1cnc(Nc2cc(F)cc(OC(F)F)c2)nc1Nc1ccc2oc(=O)[nH]c2c1", "note": "[Compound I-401, N2-(3-difluoromethoxy-5-fluoro)phenyl-5-methyl-N4-(2-oxo-2,3-dihydro-1,3-benzoxazol-5-yl)-2,4-pyrimidinediamine]", "pIC50": "> 6.30"}, {"smiles": "Cc1cnc(Nc2cc(F)cc(OC(C)(C)C(N)=O)c2)nc1Nc1ccc2oc(=O)[nH]c2c1", "note": "[Compound I-402, N2-[3-(1-aminocarbonyl-1-methyl)ethoxy-5-fluoro]phenyl-5-methyl-N4-(2-oxo-2,3-dihydro-1,3-benzoxazol-5-yl)-2,4-pyrimidinediamine]", "pIC50": "> 6.30"}, {"smiles": "Cc1cnc(Nc2cc(C)c(C)c(C)c2)nc1Nc1ccc2oc(=O)n(COP(=O)(OC(C)(C)C)OC(C)(C)C)c2c1", "note": "[Compound I-405, N4-{3-[bis(1,1-dimethylethoxy)]phosphinyloxymethyl-2-oxo-2,3-dihydro-1,3-benzoxazol-5-yl}-N2-(3,4,5-trimethyl)phenyl-5-methyl-2,4-pyrimidinediamine]", "pIC50": "5.00 to 5.30"}, {"smiles": "Cc1cnc(Nc2cc(C)c(C)c(C)c2)nc1Nc1ccc2oc(=O)n(COP(=O)(O)O)c2c1", "note": "[Compound I-406, 5-methyl-N4-[3-(phosphonooxy)methyl-2-oxo-2,3-dihydro-1,3-benzoxazol-5-yl]-N2-(3,4,5-trimethyl)phenyl-2,4-pyrimidinediamine]", "pIC50": "5.30 to 6.30"}, {"smiles": "Cc1cnc(Nc2cc(F)c(F)c(F)c2)nc1Nc1ccc2oc(=O)[nH]c2c1", "note": "[Compound I-408, 5-methyl-N4-(2-oxo-2,3-dihydro-1,3-benzoxazol-5-yl)-N2-(3,4,5-trifluoro)phenyl-2,4-pyrimidinediamine]", "pIC50": "> 6.30"}, {"smiles": "Cc1cnc(Nc2cc(F)c(C(F)(F)F)c(F)c2)nc1Nc1ccc2oc(=O)[nH]c2c1", "note": "[Compound I-415, N2-(3,5-difluoro-4-trifluoromethyl)phenyl-5-methyl-N4-(2-oxo-2,3-dihydro-1,3-benzoxazol-5-yl)-2,4-pyrimidinediamine]", "pIC50": "> 6.30"}, {"smiles": "Cc1cnc(Nc2cc(F)cc(OC(C)(C)C#N)c2)nc1Nc1ccc2oc(=O)[nH]c2c1", "note": "[Compound I-416, N2-[3-(1-cyano-1-methyl)ethoxy-5-fluoro]phenyl-5-methyl-N4-(2-oxo-2,3-dihydro-1,3-benzoxazol-5-yl)-2,4-pyrimidinediamine]", "pIC50": "> 6.30"}, {"smiles": "Cc1cnc(Nc2ccc(F)c(OC(C)(C)C#N)c2)nc1Nc1ccc2oc(=O)[nH]c2c1", "note": "[Compound I-417, N2-[3-(1-cyano-1-methyl)ethoxy-4-fluoro]phenyl-5-methyl-N4-(2-oxo-2,3-dihydro-1,3-benzoxazol-5-yl)-2,4-pyrimidinediamine]", "pIC50": "> 6.30"}]}]}
